The results in this text go back to PubChem BioAssay AID330 (DTP/NCI, 2004).

Where “and” joins values, the source holds several entries; their conditions need not be identical. Equal values may be shown once. Inconclusive results and toxic doses are left out.

The subject of this assay is P388 leukemia ip, CD2F1 mice, survival T/C. Description: NCI In Vivo Anticancer Drug Screen. Data for tumor model P388 Leukemia (intraperitoneal) in CD2F1 (CDF1) mice. Particulars: endpoint: median survival time, higher = longer survival. The gist of the method:
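Mice carrying the transplanted tumor received test compound or vehicle. Survival was recorded in each group, and the value is the treated-group measurement divided by that of the vehicle-treated control group.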

Setting [1] is: dose: 50.0 mg/kg/injection, schedule: Q01DX009 (ip), vehicle: Klucel (hydroxypropylcellulose) (HPC).
Setting [2] is: dose: 100.0 mg/kg/injection, schedule: Q01DX009 (ip), vehicle: Klucel (hydroxypropylcellulose) (HPC).
The mark [3] stands for this setting: dose: 200.0 mg/kg/injection, schedule: Q01DX009 (ip), vehicle: Klucel (hydroxypropylcellulose) (HPC).
The mark [4] stands for this setting: dose: 50.0 mg/kg/injection, schedule: Q01DX005 (ip), vehicle: saline with Tween-80.
Where [5] appears, read: dose: 100.0 mg/kg/injection, schedule: Q01DX005 (ip), vehicle: saline with Tween-80.
Where [6] appears, read: dose: 200.0 mg/kg/injection, schedule: Q01DX005 (ip), vehicle: saline with Tween-80.
Where [7] appears, read: dose: 50.0 mg/kg/injection, schedule: Q01DX005 (ip), vehicle: Klucel (hydroxypropylcellulose) (HPC).
Setting [8] is: dose: 100.0 mg/kg/injection, schedule: Q01DX005 (ip), vehicle: Klucel (hydroxypropylcellulose) (HPC).
[9] abbreviates: dose: 200.0 mg/kg/injection, schedule: Q01DX005 (ip), vehicle: Klucel (hydroxypropylcellulose) (HPC).
[10] abbreviates: dose: 12.5 mg/kg/injection, schedule: Q01DX005 (ip), vehicle: saline with Tween-80.
The mark [11] stands for this setting: dose: 25.0 mg/kg/injection, schedule: Q01DX005 (ip), vehicle: saline with Tween-80.
The mark [12] stands for this setting: dose: 6.25 mg/kg/injection, schedule: Q01DX005 (ip), vehicle: saline with Tween-80.

As to `CN(C)CCSc1cc(O)c2c(c1O)C(=O)c1ccccc1C2=O`, the T/C runs as follows: (dose: 12.5 mg/kg/injection, schedule: Q04DX003 (ip), vehicle: water) 107 % of control; (dose: 25.0 mg/kg/injection, schedule: Q01DX009 (ip), vehicle: water) 102 % of control; (dose: 25.0 mg/kg/injection, schedule: Q04DX003 (ip), vehicle: water) 98 % of control; (dose: 50.0 mg/kg/injection, schedule: Q01DX009 (ip), vehicle: water) 103 % of control; (dose: 50.0 mg/kg/injection, schedule: Q04DX003 (ip), vehicle: water) 102 % of control; (dose: 100.0 mg/kg/injection, schedule: Q01DX009 (ip), vehicle: water) 102 % of control. For the same compound, the T/C was 102 % of control (dose: 100.0 mg/kg/injection, schedule: Q04DX003 (ip), vehicle: water); 97 % of control (dose: 200.0 mg/kg/injection, schedule: Q01DX009 (ip), vehicle: water); 118 % of control (dose: 200.0 mg/kg/injection, schedule: Q04DX003 (ip), vehicle: water).

`O=C1CC2(CCCC2)C(=O)N1c1cccc2ccccc12`: the T/C under setting [1] was 94 % of control, the T/C under setting [2] is 106 % of control and the T/C under setting [3] was 111 % of control.

As for `O=C(O)CSC(CC(=O)O)C(F)(F)C(F)(F)C(F)(F)F` (configuration not stated), the T/C is 100 % of control (dose: 176.0 mg/kg/injection, schedule: Q04DX003 (ip), vehicle: saline) and 95 % of control (dose: 264.0 mg/kg/injection, schedule: Q04DX003 (ip), vehicle: saline).

With `CC(C)(C)c1cc(C2C(C#N)C(=O)NC(=O)C2C#N)cc(C(C)(C)C)c1O` (configuration not stated), the T/C by setting is: under setting [1], 103 % of control; under setting [2], 100 % of control; under setting [3], 94 % of control.

In the case of `C=COC(=O)C(Cc1cccs1)NC(=O)OCc1ccccc1` (configuration not stated), the T/C reads like this: under setting [4], 101 % of control; under setting [5], 96 % of control; under setting [6], 95 % of control.

As to `CC(CCOCCCBr)OC(=O)CCOCCC(=O)OC(C)CCOCCCBr` (configuration not stated), the T/C was 100 % of control under setting [7], 98 % of control under setting [8] and 100 % of control under setting [9].

For `CC1Cc2ccccc2/C1=N/NC(N)=O` (configuration not stated), the T/C was 103 % of control under setting [7], 100 % of control under setting [8] and 99 % of control under setting [9].

Take `C=C1C(=O)C23C(O)C1CCC2C12CCCC(C)(C)C1C(O)C3(O)OC2` (configuration not stated): the T/C was 101 % of control (dose: 2.5 mg/kg/injection, schedule: Q01DX005 (ip), vehicle: Klucel (hydroxypropylcellulose) (HPC)); 107 % of control (dose: 5.0 mg/kg/injection, schedule: Q01DX005 (ip), vehicle: Klucel (hydroxypropylcellulose) (HPC)); 108 % of control (dose: 10.0 mg/kg/injection, schedule: Q01DX005 (ip), vehicle: Klucel (hydroxypropylcellulose) (HPC)).

As to `C=C(C(=O)OC)C1C=CCCCC1` (configuration not stated), the T/C is, setting by setting: (dose: 100.0 mg/kg/injection, schedule: Q01DX001 (ip), vehicle: saline with Tween-80) 114 % of control; (dose: 200.0 mg/kg/injection, schedule: Q01DX001 (ip), vehicle: saline with Tween-80) 113 % of control; (dose: 400.0 mg/kg/injection, schedule: Q01DX001 (ip), vehicle: saline with Tween-80) 105 % of control.

Take `O=[N+]([O-])CC(c1ccccc1)C(c1ccccc1)[N+](=O)[O-]` (configuration not stated): the T/C is, setting by setting: under setting [4], 90 % of control; under setting [5], 93 % of control; under setting [6], 112 % of control.

As to `c1ccc2nc(-c3cc4ccccc4s3)ccc2c1`, the T/C by setting is: (dose: 100.0 mg/kg/injection, schedule: Q01DX009 (ip), vehicle: saline with Tween-80) 100 % of control and 104 % of control; (dose: 100.0 mg/kg/injection, schedule: Q04DX003 (ip), vehicle: saline with Tween-80) 90 % of control; (dose: 200.0 mg/kg/injection, schedule: Q01DX009 (ip), vehicle: saline with Tween-80) 100 % of control and 90 % of control; (dose: 200.0 mg/kg/injection, schedule: Q04DX003 (ip), vehicle: saline with Tween-80) 90 % of control; (dose: 400.0 mg/kg/injection, schedule: Q01DX009 (ip), vehicle: saline with Tween-80) 109 % of control and 95 % of control; (dose: 400.0 mg/kg/injection, schedule: Q04DX003 (ip), vehicle: saline with Tween-80) 90 % of control.

`CCCCCCC(=O)/C=c1\c(CC(=O)CCCCCC)nc2nnc(N)n12`: the T/C runs as follows: (dose: 60.0 mg/kg/injection, schedule: Q01DX005 (ip), vehicle: saline with Tween-80) 96 % of control; (dose: 120.0 mg/kg/injection, schedule: Q01DX005 (ip), vehicle: saline with Tween-80) 100 % of control; (dose: 240.0 mg/kg/injection, schedule: Q01DX005 (ip), vehicle: saline with Tween-80) 88 % of control.

Turning to `O=[N+]([O-])c1ccccc1C(Nc1nncs1)Nc1nncs1`, the T/C was 102 % of control under setting [7]; 102 % of control and 121 % of control under setting [8].

Consider `Cc1cnc(NCCCCCCCCNc2ncc(C)c(-c3ccccc3O)n2)nc1-c1ccccc1O`, for which the T/C runs as follows: (dose: 100.0 mg/kg/injection, schedule: Q04DX003 (ip), vehicle: saline) 95 % of control; (dose: 200.0 mg/kg/injection, schedule: Q04DX003 (ip), vehicle: saline) 93 % of control; (dose: 400.0 mg/kg/injection, schedule: Q04DX003 (ip), vehicle: saline) 89 % of control.

Regarding `CC(=O)c1c(-c2ccc(Cl)cc2)c(-c2ccc(Cl)cc2)nn(CCN)c1=O`, the T/C was 100 % of control under setting [10]; 98 % of control under setting [11]; 98 % of control and 95 % of control under setting [4].

For the compound `O=S(Cc1ccc2c(c1)OCO2)c1ccccc1` (configuration not stated), the T/C is 101 % of control (dose: 100.0 mg/kg/injection, schedule: Q01DX001 (ip), vehicle: Klucel (hydroxypropylcellulose) (HPC)); 100 % of control (dose: 200.0 mg/kg/injection, schedule: Q01DX001 (ip), vehicle: Klucel (hydroxypropylcellulose) (HPC)); 100 % of control (dose: 400.0 mg/kg/injection, schedule: Q01DX001 (ip), vehicle: Klucel (hydroxypropylcellulose) (HPC)).

On to `CC1CN1C(=O)Nc1cccc(Cl)c1` (configuration not stated), for which the T/C reads like this: (dose: 50.0 mg/kg/injection, schedule: Q01DX009 (ip), vehicle: saline) 100 % of control; (dose: 100.0 mg/kg/injection, schedule: Q01DX009 (ip), vehicle: saline) 102 % of control.

`CCCCCCCCCCCCC1C(=O)NCCNCCCNCCNC1=O`: the T/C runs as follows: (dose: 12.5 mg/kg/injection, schedule: Q01DX005 (ip), vehicle: saline) 101 % of control; (dose: 25.0 mg/kg/injection, schedule: Q01DX005 (ip), vehicle: saline) 97 % of control; (dose: 50.0 mg/kg/injection, schedule: Q01DX005 (ip), vehicle: saline) 105 % of control.

`Cc1c([O-])[n+]2cccc3ccn(c1=O)c32`: the T/C is 97 % of control (dose: 60.0 mg/kg/injection, schedule: Q01DX005 (ip), vehicle: Klucel (hydroxypropylcellulose) (HPC)); 100 % of control (dose: 120.0 mg/kg/injection, schedule: Q01DX005 (ip), vehicle: Klucel (hydroxypropylcellulose) (HPC)); 94 % of control (dose: 240.0 mg/kg/injection, schedule: Q01DX005 (ip), vehicle: Klucel (hydroxypropylcellulose) (HPC)).

For `CCOC(=O)C1Cc2c([nH]c(=O)[nH]c2=O)OC1c1ccc([N+](=O)[O-])cc1` (configuration not stated), the T/C is, setting by setting: under setting [7], 97 % of control; under setting [8], 89 % of control; under setting [9], 94 % of control.

With `CCN=C1C=CC(=C(c2ccc(N(CC)CC)cc2)c2ccc(N(CC)CC)cc2)c2ccccc21`, the T/C runs as follows: under setting [12], 110 % of control and 113 % of control; under setting [10], 118 % of control (2×) and 119 % of control; under setting [11], 115 % of control.

As for `O=C1OCc2cc3c(cc2-c2ccccc21)OCO3`, the T/C is 95 % of control (dose: 100.0 mg/kg/injection, schedule: Q04DX002 (ip), vehicle: saline with Tween-80); 101 % of control (dose: 200.0 mg/kg/injection, schedule: Q04DX002 (ip), vehicle: saline with Tween-80); 91 % of control (dose: 400.0 mg/kg/injection, schedule: Q04DX002 (ip), vehicle: saline with Tween-80).

Consider `CCOC(=O)CCOc1ccccc1N(CCCl)CCCl`, for which the T/C is 150 % of control (dose: 3.13 mg/kg/injection, schedule: Q04DX003 (ip), vehicle: saline with Tween-80) and 163 % of control (dose: 6.25 mg/kg/injection, schedule: Q04DX003 (ip), vehicle: saline with Tween-80).

In the case of `CCS(=O)(=O)c1ccc(N2C(N)=NC(N)=NC2(C)C)cc1`, the T/C by setting is: under setting [12], 103 % of control; under setting [10], 100 % of control; under setting [11], 103 % of control.
